According to publication PMC12019328, “Discovery of an ApoE4-targeted small-molecule SirT1 enhancer for the treatment of Alzheimer’s disease” (Scientific Reports, 2025):
Entries after “also recorded” stand apart in the source; their conditions may differ.

Tests used:
[1] = system: SirT1 protein in N2a-E4 cells; assay: SirT1 protein levels in N2a-E4 cells (AlphaLISA); type: cell-based, murine
Method: Relative SirT1 mRNA and protein enhancement by racemate DDL-214 and enantiomers DDL-218 and − 219 was determined in murine neuroblastoma cells stably transfected with ApoE4 (N2a-E4)[25]. All test compounds in DMSO were prepared at 2x the final concentration in DMEM supplemented with 10% fetal bovine serum (FBS) and 1% pen-strep (PS) and 50 µL of each loaded into individual wells of a 96-well plate. Previously cultured N2a-E4 were then trypsinized, harvested, centrifuged, and counted; then 50 µL of cell suspension adjusted to 400 cells/µL was added to each well. The plate was then incubated at 37 °C, 5% CO2 for 48 h. Cells were treated with DDL-214, DDL-218, or DDL-219 at 5 µM final then incubated for 24 h. After incubation, the cells were lysed with 50 µL of ice-cold lysis buffer (0.4% SDS, 3.5% Triton X-100, 0.02% sodium deoxycholate, 28 mM TRIS pH 8) complemented with 1X final Halt™ Protease and Phosphatase Inhibitor Cocktail (Thermo Fisher catalog # 78442), placed on ice for 10 min and at -80 °C, followed by 3 freeze/thaw cycles.
An AlphaLISA comprising streptavidin donor beads (Revvity catalog # 6760002 S), biotinylated anti-SirT1 N-terminal antibody (monoclonal 19A7AB4, Abcam catalog # ab110304), and acceptor beads (Revvity catalog # 6772001) conjugated to the anti-SirT1 C-terminal antibody (monoclonal 1F3, Abcam catalog # ab104833) was used to determine SirT1 protein levels. […] The plates were read using an Envision plate reader.
Figure S3B. […] Compound treatment was done at 5 and 50 µM. SirT1 levels were measured by AlphaLISA followed and normalized to protein […]
Brain tissue was homogenized in PBS (pH 7.4) (1: 3 weight(mg)/volume(µL)) and the protein concentration of was determined using the Micro BCA™ Protein Assay Kit (Thermo Fisher Scientific, Cat#23235). […]
(§1) The % of the unbound drug (fu,bound) was calculated using the following equation: fu,bound = [normalized peak area in buffer side / normalized peak area in brain side] x 100 Liver Microsome Stability [t1/2 (min)] […]

[2] = Brain tissue binding (dialysis of brain homogenate); type: in vitro ADME; conditions: pH 7.4, brain homogenate 20 mg/mL, 2 µM compound, 37 °C, read-out: Brain Tissue Binding [fu,bound (%)]
Method: Figure S3B. SirT1 protein levels in N2a-E4 cells after A03 and DDL-214 treatment. Compound treatment was done at 5 and 50 µM. SirT1 levels were measured by AlphaLISA followed and normalized to protein […]
DDL-218 Physiochemical Properties
Brain Tissue Binding [fu,bound (%)]
Brain tissue was homogenized in PBS (pH 7.4) (1: 3 weight(mg)/volume(µL)) and the protein concentration of was determined using the Micro BCA™ Protein Assay Kit (Thermo Fisher Scientific, Cat#23235). Brain homogenate was diluted to 20 mg/mL in PBS (pH 7.4) and added to Slide-A-Lyzer™ MINI Dialysis Devices, 10K MWCO dialysis cups (Thermo Fisher Scientific, Cat#PI88401) in 48-well plate containing PBS (500 µL; pH 7.4). 1 µL of […] compound was added to the brain homogenate (Final Concentration: 2 µM compound, 0.5% DMSO) and incubated on a rocker for 4.5 hours at 37 °C. 50 µL of brain homogenate (within the dialysis cup) and PBS (within the 48-well plate) were transferred to new microcentrifuge tubes containing 200 µL of quenching reagent (100% Acetonitrile) containing internal standard. […]
as §1

[3] = system: PPP2r5e mRNA in Kelly cells; assay: PPP2r5e mRNA in Kelly neuroblastoma cells; type: cell-based, human; conditions: 5 µM, 24 h, vs DMSO
Method: (§2) Human neuroblastoma ‘Kelly’ cells (genotype APOE3/APOE4) were plated in 96-well plates at 50K cells per well and were grown overnight in RPMI 1640 supplemented with 2 mM Glutamine, 10% FBS and 1% Pen-Strep. Cells were treated with 5 µM DDL-214, -218, or -219; or DMSO vehicle (n = 8 per compound). Twenty-four hours later, medium was removed, cells washed and lysed as described above for N2a-E4 cells.
(§3) Total RNA was isolated from cells or brain tissue (Qiagen RNEasy kit). Total RNA (0.5–1.0 µg) mRNA was then converted to cDNA (SuperScript™ III First-Strand Synthesis SuperMix kit; Thermo Fisher), and gene mRNA levels were measured using a gene-specific qRT-PCR Taqman assays (Thermo Fisher). Gene mRNA levels were normalized to GAPDH mRNA levels measured either in the same cDNA sample or in the same qPCR reaction using multiplexing of gene-of-interest/VIC and GAPDH/FAM, normalized by the delta-delta-Ct method.

[4] = system: SirT1 mRNA in Kelly cells; assay: SirT1 mRNA in Kelly neuroblastoma cells; type: cell-based, human; conditions: 5 µM, 24 h, vs DMSO control
Method: as §2, §3

SMILES | SirT1 protein levels ([1]; N2a-E4 cells, 5 µM, 24 h, vs DMSO control) | fraction unbound at 4.5 h, 2 µM [2] | PPP2r5e mRNA [3] | SirT1 mRNA [4] | SirT1 increase over vehicle ([1]; 50 uM in N2a-E4 cells) [%]
CC(N)C(=O)OC(C)(C)Cc1ccncc1 (centres unmarked) [DDL-218] | greatest increase in SirT1 protein | 0.43 | significantly increased | greatest increase; also recorded: significantly increased SirT1 mRNA | 
C#Cc1ccc(CC(C)(C)NC(=O)[C@H](C)N)cc1 [DDL-220] |  |  |  |  | 30
